In patent publication US9492471B2, “Methods of treating a disease or disorder associated with Bruton'S Tyrosine Kinase” (Celgene Avilomics Research, Inc., priority 2013, dated 2016):
Read-outs that look alike come from different tables or passages of the source.

How the values were obtained:
Assay in all cases: HotSpot kinase profiling
Format in all cases: biochemical
[1] = molecular target: T1, ROCK2 (Homo sapiens, UniProt O75116)
T1 construct: purchased Reaction Biology Corp
Procedure, shortened: (§1)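 Radiometric kinase assay with P81 filter capture; each kinase was added to fresh substrate plus cofactors in reaction buffer and incubated 2 h at room temperature. Unreacted phosphate was washed off with 0.1% phosphoric acid before detection; percent inhibition is relative to DMSO control, averaged over replicates.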

[2] = molecular target: T2, FGFR3 (Homo sapiens, UniProt P22607)
T2 construct: purchased Reaction Biology Corp
Procedure, shortened: as §1

[3] = molecular target: T3, LATS2 (Homo sapiens, UniProt Q9NRM7)
T3 construct: purchased Reaction Biology Corp
T3 sequence (Q9NRM7 1-1088): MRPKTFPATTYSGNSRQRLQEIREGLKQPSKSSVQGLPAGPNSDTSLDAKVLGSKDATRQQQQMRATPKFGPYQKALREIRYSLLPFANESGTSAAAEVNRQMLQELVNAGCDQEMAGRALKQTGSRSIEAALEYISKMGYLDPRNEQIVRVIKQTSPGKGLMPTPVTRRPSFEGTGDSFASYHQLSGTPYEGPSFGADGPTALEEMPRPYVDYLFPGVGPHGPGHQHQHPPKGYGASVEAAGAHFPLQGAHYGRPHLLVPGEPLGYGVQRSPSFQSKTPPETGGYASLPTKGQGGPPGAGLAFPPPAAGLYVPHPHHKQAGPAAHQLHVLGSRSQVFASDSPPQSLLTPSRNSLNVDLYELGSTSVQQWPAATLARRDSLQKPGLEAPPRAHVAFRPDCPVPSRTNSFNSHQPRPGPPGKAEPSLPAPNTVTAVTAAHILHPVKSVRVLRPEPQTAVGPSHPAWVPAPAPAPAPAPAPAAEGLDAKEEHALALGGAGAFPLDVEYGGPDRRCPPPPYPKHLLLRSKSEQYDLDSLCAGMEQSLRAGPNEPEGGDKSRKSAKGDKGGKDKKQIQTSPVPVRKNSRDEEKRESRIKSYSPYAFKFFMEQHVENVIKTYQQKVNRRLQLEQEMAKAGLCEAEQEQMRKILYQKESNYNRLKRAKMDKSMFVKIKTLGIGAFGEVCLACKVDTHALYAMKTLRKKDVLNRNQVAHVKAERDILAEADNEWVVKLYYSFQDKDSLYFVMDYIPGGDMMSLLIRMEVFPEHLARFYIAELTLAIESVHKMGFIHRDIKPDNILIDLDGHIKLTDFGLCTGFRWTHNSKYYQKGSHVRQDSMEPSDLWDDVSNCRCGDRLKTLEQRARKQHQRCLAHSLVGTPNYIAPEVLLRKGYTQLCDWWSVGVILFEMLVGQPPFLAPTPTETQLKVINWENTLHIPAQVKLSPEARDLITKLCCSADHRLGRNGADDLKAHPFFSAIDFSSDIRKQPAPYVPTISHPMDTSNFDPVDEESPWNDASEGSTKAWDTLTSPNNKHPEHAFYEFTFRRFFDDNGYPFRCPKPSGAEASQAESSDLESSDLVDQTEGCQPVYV
Procedure, shortened: as §1

[4] = molecular target: T4, ALK6/BMPR1B (Homo sapiens, UniProt O00238)
T4 construct: purchased Reaction Biology Corp
Procedure, shortened: as §1

[5] = molecular target: T5, STK32B/YANK2 (Homo sapiens, UniProt Q9NY57)
T5 construct: purchased Reaction Biology Corp
Procedure, shortened: as §1

[6] = molecular target: T6, ARK5/NUAK1 (Homo sapiens, UniProt O60285)
T6 construct: purchased Reaction Biology Corp
T6 sequence (O60285 1-661): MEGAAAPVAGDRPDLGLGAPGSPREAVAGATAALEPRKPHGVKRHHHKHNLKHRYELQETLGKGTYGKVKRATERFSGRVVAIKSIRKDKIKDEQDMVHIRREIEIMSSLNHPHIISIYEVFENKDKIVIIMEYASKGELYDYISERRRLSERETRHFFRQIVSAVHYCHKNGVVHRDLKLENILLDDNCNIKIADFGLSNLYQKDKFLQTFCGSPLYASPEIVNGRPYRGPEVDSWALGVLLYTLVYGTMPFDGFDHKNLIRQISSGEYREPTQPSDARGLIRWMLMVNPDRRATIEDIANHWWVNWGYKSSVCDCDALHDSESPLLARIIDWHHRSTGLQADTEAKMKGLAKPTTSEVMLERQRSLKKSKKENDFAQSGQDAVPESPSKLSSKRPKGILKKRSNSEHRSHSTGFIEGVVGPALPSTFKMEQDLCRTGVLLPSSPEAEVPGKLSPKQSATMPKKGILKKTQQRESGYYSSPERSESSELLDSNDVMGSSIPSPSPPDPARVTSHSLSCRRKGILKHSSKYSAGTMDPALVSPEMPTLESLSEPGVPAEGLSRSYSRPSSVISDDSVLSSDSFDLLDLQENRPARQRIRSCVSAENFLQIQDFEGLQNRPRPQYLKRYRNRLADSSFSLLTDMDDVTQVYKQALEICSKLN
Procedure, shortened: as §1

[7] = molecular target: T7, ABL2/ARG (Homo sapiens, UniProt P42684)
T7 construct: purchased Reaction Biology Corp
Procedure, shortened: as §1

[8] = read-out: % Enzyme Activity (relative to DMSO controls) Run 1
[9] = read-out: % Enzyme Activity (relative to DMSO controls) Run 2

T1 sequence (O75116 whole entry): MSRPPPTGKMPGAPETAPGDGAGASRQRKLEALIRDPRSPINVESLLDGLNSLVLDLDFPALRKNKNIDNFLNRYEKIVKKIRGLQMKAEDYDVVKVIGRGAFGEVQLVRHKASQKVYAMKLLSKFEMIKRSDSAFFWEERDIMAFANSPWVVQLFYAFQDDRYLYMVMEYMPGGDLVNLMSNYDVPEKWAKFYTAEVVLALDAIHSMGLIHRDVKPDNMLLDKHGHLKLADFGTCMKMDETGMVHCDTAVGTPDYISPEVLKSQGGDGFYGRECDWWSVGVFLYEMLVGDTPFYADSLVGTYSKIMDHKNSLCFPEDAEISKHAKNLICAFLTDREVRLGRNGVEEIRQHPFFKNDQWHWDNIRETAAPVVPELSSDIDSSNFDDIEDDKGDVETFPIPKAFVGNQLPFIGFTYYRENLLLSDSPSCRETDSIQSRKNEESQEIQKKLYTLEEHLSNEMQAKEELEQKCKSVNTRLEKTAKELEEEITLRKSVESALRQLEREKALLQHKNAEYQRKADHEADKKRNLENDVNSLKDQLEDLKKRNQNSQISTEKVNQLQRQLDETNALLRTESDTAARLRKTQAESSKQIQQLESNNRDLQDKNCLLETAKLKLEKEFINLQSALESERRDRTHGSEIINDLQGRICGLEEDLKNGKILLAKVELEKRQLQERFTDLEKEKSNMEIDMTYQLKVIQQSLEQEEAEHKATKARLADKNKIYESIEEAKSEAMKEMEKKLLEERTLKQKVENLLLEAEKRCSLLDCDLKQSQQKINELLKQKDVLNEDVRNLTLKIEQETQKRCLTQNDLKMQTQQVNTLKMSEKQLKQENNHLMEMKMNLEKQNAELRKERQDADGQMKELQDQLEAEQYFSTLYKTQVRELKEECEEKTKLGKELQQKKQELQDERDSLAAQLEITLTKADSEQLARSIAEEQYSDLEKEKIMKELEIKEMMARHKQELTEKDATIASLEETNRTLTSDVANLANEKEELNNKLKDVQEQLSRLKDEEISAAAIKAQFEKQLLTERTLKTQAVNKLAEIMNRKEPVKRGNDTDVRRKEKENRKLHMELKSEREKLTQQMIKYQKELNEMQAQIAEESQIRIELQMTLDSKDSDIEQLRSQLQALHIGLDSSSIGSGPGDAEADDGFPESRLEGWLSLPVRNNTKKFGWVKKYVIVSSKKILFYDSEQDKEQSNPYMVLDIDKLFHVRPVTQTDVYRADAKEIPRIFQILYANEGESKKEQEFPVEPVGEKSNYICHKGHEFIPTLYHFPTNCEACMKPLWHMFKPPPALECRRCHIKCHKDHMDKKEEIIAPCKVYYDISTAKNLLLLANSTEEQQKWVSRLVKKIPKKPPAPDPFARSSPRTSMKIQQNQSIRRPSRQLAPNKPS
T5 sequence (Q9NY57 whole entry): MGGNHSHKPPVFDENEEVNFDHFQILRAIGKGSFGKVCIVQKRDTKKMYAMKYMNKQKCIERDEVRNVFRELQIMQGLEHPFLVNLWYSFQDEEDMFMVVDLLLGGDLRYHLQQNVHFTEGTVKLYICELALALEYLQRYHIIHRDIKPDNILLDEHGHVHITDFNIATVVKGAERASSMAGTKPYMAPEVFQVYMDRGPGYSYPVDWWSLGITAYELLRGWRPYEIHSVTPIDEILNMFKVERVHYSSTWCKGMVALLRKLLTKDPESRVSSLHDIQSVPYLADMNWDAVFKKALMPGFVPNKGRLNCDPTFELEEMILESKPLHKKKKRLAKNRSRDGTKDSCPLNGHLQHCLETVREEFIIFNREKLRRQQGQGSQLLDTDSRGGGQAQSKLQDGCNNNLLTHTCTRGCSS
T4 sequence (O00238 14-502): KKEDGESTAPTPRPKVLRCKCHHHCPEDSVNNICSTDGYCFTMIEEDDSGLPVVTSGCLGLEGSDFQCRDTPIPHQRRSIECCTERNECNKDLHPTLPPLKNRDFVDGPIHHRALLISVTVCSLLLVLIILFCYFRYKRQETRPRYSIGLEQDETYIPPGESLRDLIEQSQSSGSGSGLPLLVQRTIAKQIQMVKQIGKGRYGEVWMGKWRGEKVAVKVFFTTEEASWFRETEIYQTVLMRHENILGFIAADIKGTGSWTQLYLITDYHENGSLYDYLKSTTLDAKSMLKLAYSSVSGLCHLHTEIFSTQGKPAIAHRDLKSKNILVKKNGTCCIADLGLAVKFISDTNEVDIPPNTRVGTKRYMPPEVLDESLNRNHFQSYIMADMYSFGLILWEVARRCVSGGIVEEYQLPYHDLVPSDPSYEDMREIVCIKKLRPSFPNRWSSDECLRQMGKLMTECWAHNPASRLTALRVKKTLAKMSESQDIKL
T7 sequence (P42684 whole entry): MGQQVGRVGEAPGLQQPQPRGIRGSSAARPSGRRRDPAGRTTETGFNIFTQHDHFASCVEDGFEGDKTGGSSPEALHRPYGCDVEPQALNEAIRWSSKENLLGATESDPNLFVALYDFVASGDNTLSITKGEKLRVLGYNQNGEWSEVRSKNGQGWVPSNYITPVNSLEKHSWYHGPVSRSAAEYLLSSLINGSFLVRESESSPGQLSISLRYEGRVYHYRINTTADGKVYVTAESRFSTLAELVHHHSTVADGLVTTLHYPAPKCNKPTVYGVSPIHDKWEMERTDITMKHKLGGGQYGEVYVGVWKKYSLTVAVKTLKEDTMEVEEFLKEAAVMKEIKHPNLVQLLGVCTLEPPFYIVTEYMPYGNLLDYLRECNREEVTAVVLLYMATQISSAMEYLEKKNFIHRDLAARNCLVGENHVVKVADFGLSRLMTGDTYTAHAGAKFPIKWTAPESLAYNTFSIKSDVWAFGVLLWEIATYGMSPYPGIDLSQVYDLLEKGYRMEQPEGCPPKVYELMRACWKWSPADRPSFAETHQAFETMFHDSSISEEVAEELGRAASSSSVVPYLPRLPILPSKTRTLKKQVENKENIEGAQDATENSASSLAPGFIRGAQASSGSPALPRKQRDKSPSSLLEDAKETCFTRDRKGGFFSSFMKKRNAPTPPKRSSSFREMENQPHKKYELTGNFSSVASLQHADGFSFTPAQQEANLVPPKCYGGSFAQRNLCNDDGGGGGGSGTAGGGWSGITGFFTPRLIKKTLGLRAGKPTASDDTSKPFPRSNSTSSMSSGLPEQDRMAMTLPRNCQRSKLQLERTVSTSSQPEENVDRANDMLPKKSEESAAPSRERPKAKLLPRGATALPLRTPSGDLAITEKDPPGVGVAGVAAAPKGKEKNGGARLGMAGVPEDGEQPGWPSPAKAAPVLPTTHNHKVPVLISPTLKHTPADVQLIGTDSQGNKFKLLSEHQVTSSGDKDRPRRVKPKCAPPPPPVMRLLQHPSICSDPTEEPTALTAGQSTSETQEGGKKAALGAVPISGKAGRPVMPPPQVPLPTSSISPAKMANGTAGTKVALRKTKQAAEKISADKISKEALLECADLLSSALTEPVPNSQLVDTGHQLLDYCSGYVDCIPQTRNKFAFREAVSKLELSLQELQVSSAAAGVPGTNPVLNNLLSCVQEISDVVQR
T2 sequence (P22607 23-806): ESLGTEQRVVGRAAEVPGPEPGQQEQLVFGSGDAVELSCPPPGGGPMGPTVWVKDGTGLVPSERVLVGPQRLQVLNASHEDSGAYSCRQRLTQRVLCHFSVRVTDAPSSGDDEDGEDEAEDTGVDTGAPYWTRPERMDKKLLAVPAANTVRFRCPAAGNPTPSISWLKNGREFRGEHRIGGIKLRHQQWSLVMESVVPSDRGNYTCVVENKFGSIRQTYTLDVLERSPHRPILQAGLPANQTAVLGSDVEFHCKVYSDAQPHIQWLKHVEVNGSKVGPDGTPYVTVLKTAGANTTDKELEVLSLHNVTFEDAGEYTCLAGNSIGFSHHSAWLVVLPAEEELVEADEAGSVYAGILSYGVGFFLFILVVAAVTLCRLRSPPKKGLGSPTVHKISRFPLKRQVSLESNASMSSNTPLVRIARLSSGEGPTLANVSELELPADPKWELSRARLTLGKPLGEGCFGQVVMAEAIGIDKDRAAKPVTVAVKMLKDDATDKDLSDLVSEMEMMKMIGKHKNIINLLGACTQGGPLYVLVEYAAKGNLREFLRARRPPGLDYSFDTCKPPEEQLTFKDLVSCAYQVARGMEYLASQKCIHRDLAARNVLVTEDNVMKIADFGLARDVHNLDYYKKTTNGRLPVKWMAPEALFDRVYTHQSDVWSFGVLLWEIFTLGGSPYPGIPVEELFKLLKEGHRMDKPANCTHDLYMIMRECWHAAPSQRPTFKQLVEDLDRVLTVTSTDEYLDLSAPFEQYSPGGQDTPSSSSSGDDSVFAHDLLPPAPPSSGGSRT

C=CC(=O)Nc1cccc(Nc2nc(Nc3ccc(OCCOC)c(F)c3)ncc2F)c1 [Compound 2]
inhibition at 3 µM [1]: -1.88% | remaining activity at 3 µM [1, 8]: 102% | remaining activity at 3 µM [1, 9]: 101% | inhibition at 3 µM [2]: 68% | remaining activity at 3 µM [2, 8]: 32.1% | remaining activity at 3 µM [2, 9]: 31.8% | inhibition at 3 µM [3]: 10.2% | remaining activity at 3 µM [3, 8]: 88.4% | remaining activity at 3 µM [3, 9]: 91.2% | inhibition at 3 µM [4]: -80.4% | remaining activity at 3 µM [4, 8]: 177% | remaining activity at 3 µM [4, 9]: 184% | inhibition at 3 µM [5]: 5.3% | remaining activity at 3 µM [5, 8]: 95.8% | remaining activity at 3 µM [5, 9]: 93.6% | inhibition at 3 µM [6]: 86.7% | remaining activity at 3 µM [6, 8]: 13.3% | remaining activity at 3 µM [6, 9]: 13.3% | inhibition at 3 µM [7]: 62.8% | remaining activity at 3 µM [7, 8]: 37.3% | remaining activity at 3 µM [7, 9]: 37.1%
